Assays:
[1] = test system: systemic LOX; settings: mouse, in vivo; cited from earlier work
[2] = test system: SiHa cervical cancer cells; settings: in vitro, hypoxic/anoxic conditions; cited from earlier work
[3] = biological target: T1, Human MAO-B (Homo sapiens, UniProt P27338); assay: Inhibition of human recombinant MAO-B; assay type: biochemical; settings: substrate benzylamine 100 μM
T1 construct: purchased Sigma Aldrich

[4] = biological target: T2, Human MAO-A (Homo sapiens, UniProt P21397); assay: Inhibition of human recombinant MAO-A; assay type: biochemical; settings: 2 hours incubation; substrate tyramine 200 μM
T2 construct: purchased Sigma Aldrich
T2 sequence (P21397 whole entry): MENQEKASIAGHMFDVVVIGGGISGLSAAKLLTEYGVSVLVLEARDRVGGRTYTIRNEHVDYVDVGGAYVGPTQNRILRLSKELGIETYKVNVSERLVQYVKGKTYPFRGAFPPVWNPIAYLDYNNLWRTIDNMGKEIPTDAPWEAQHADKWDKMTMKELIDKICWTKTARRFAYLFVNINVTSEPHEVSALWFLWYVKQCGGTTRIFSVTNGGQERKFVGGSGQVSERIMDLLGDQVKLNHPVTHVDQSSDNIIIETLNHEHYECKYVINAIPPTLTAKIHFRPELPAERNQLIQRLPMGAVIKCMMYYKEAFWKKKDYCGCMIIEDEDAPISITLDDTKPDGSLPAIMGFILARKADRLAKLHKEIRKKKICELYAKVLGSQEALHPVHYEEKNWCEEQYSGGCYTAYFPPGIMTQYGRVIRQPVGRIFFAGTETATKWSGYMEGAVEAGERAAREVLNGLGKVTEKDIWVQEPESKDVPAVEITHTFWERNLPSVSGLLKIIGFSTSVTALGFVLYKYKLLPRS

[5] = Stability in topical formulation (purity profile at room temperature); assay type: physicochemical; settings: for % Purity of Compound 1 in topical formulation: 1% Compound 1
[6] = test system: TA98, TA100, TA1535 and TA1537 strains of Salmonella typhimurium and WP2uvrA (pKM101) strain of Escherichia coli; assay: Bacterial Reverse Mutation Test, initial and confirmatory mutation assay
Method: The test item Compound 1 was tested for its mutagenic potential in the bacterial reverse mutation assay. The study was conducted using TA98, TA100, TA1535 and TA1537 strains of Salmonella typhimurium and WP2uvrA (pKM101) strain of Escherichia coli in three phases; a preliminary toxicity test, an initial mutation assay and a confirmatory mutation assay. The bacterial tester strains were exposed to the test item in the presence and absence of metabolic activation system (S9 fraction prepared from Aroclor 1254 induced rat liver).
The bacterial tester strains were exposed to the test item in triplicate at 50, 158, 500, 1581 and 5000 μg/plate. The initial mutation assay was conducted using the direct plate incorporation mode of exposure whereas the confirmatory mutation assay was carried out using the pre-incubation mode of exposure. The vehicle control (DMSO) and the appropriate positive controls were tested simultaneously. The mean and standard deviation of numbers of revertant colonies were calculated for each test dose and the controls for all the tester strains.

T1 sequence (P27338 whole entry): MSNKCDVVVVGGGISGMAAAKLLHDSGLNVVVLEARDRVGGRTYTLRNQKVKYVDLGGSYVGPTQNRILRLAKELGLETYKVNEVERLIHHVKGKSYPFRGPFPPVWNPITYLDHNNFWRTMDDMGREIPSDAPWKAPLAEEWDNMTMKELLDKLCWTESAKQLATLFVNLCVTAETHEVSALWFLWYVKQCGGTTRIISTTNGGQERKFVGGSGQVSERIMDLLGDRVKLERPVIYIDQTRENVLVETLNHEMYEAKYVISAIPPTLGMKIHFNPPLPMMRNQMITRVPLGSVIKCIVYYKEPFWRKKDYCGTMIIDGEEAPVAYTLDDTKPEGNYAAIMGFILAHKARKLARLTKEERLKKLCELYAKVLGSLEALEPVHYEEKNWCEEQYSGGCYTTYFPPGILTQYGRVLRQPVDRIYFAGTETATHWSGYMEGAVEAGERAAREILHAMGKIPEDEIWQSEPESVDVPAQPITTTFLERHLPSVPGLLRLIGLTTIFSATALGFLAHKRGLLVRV

Row | IC50 [3] [µM] | IC50 [4] [µM] | % Purity of Compound 1 in topical formulation ([5]; room temperature, t = 3 months, 129600 min) [%] | % Purity of Compound 1 in topical formulation ([5]; room temperature, t = 6 months, 259200 min) [%] | % Purity of Compound 1 in topical formulation ([5]; room temperature, t = 9 months, 388800 min) [%] | % Purity of Compound 1 in topical formulation ([5]; t = 0) [%] | Compound peak percentage in topical formulation ([5]; topical formulation 1, at all tested time points) | SMILES | Metastasis and survival [1] | Invasion of SiHa cells [2] | Mutagenic increase in revertant colonies ([6]; 50-5000 μg/plate, with and without metabolic activation (S9), initial and confirmatory assay, all tester strains) | Mutagenicity ([6]; up to the top dose 5000 μg/plate)
1 |  |  |  |  |  |  |  | N#CCCN [BAPN, β-aminopropionitrile, reference compound] | reducing metastasis and increasing survival | repressed |  | 
2 | > 30 | > 100 | 99.81 | 99.82 | 99.79 | 99.83 | above 99.5% | NC/C(=C\F)CS(=O)(=O)c1ccccc1 [Compound 1, (E)-3-fluoro-2-((phenylsulfonyl)methyl)prop-2-en-1-amine] |  |  | did not show any positive mutagenic increase | not mutagenic

Source: patent publication US20260364030A1, “NOVEL SELECTIVE INHIBITORS OF LYSYL OXIDASES” (Syntara Limited, priority 2022, published 2026)
